Assay results published in PMC8908507 (ACS Omega, 2022).
Entries after “also recorded” stand apart in the source; their conditions may differ.

Assays:
human MAO-B = settings: read-out: IC50 human MAO-B; cited from earlier work
MAO-B [1] = target: T1, MAO-B (Homo sapiens, UniProt P27338); assay: MAO-B inhibition, recombinant enzyme, benzylamine substrate; assay type: biochemical
T1 sequence (P27338 1-520): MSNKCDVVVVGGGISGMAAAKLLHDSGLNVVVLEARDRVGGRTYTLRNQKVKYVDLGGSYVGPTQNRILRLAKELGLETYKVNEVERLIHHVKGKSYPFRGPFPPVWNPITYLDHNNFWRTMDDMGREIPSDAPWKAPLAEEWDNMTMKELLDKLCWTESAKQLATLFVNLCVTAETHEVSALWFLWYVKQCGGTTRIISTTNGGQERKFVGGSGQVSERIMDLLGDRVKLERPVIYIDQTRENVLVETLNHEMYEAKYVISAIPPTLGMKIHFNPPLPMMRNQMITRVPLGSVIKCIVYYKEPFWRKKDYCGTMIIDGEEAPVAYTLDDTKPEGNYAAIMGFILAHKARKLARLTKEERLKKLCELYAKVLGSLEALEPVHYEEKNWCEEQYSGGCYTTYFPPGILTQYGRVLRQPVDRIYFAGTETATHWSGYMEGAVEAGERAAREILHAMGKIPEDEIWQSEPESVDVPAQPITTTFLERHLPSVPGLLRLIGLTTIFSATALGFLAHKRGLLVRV

MAO-B [2] = target: T1, MAO-B; assay: MAO-B enzyme kinetics, Lineweaver–Burk and secondary plots; assay type: biochemical
MAO-B [3] = target: T1, MAO-B; assay: Reversibility of MAO-B inhibition by dialysis; assay type: biochemical
[4] = Cytotoxicity on Vero cells, MTT method; assay type: cell-based, African green monkey; settings: African green monkey, Vero cells (normal kidney epithelial cell line)
Vero cells [5] = assay: Cytotoxicity on Vero cells, MTT method; assay type: cell-based, African green monkey; settings: 100 μg/mL, 24 h
Vero cells [6] = assay: Intracellular ROS assay in H2O2-treated Vero cells; assay type: cell-based, African green monkey; settings: 24 h drug treatment, vs H2O2-treated control
BChE = BChE (Equus caballus, UniProt P81908); settings: 10 μM
Sequence of BChE (P81908 whole entry): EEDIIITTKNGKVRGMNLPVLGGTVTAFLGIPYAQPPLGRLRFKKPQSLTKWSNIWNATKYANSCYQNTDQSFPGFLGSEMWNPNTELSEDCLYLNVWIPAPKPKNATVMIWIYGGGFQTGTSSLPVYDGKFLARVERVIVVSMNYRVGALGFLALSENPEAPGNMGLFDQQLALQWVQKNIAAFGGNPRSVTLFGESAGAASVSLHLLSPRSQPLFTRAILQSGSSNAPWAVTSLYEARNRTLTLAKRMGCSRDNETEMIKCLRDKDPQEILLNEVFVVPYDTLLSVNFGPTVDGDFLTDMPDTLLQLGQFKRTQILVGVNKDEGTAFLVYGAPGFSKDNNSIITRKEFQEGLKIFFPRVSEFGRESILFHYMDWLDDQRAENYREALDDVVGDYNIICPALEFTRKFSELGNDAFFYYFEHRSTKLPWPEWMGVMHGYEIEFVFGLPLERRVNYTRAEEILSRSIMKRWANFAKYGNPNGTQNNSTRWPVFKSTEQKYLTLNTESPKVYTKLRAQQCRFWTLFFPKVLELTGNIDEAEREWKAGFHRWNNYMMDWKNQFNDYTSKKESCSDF

MAO-A = target: T2, MAO-A (Homo sapiens, UniProt P21397); assay: biochemical
T2 sequence (P21397 1-527): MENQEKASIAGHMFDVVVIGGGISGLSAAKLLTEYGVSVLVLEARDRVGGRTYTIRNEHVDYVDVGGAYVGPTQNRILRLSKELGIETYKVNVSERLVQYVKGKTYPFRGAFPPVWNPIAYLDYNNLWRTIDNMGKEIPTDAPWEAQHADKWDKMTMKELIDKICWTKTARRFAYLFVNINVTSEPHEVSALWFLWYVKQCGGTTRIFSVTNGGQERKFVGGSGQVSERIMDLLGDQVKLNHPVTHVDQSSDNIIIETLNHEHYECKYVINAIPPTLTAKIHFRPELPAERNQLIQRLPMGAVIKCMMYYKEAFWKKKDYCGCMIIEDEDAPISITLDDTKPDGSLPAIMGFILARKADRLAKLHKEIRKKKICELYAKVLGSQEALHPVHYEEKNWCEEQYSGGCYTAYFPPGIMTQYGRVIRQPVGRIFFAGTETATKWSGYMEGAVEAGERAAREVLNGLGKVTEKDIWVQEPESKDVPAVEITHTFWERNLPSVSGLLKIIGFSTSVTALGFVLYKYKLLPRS

BACE1 = BACE1 (Homo sapiens, UniProt P56817); assay: biochemical; settings: read-out: residual activity (%) BACE1
Sequence of BACE1 (P56817 46-501): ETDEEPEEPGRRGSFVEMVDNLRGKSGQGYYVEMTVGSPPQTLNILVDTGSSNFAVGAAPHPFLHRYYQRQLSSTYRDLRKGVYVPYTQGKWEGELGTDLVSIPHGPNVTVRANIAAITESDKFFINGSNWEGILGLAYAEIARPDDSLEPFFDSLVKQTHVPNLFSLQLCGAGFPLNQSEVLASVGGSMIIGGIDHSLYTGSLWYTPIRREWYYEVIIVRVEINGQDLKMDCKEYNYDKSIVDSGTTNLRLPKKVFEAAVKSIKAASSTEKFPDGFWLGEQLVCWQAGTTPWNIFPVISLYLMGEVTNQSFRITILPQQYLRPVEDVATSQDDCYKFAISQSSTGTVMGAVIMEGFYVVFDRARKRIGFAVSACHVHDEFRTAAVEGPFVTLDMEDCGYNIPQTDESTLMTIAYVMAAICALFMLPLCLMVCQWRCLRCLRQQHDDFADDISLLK

AChE = AChE (Electrophorus electricus, UniProt O42275); assay: AChE inhibition; settings: 10 μM
Sequence of AChE (O42275 24-633): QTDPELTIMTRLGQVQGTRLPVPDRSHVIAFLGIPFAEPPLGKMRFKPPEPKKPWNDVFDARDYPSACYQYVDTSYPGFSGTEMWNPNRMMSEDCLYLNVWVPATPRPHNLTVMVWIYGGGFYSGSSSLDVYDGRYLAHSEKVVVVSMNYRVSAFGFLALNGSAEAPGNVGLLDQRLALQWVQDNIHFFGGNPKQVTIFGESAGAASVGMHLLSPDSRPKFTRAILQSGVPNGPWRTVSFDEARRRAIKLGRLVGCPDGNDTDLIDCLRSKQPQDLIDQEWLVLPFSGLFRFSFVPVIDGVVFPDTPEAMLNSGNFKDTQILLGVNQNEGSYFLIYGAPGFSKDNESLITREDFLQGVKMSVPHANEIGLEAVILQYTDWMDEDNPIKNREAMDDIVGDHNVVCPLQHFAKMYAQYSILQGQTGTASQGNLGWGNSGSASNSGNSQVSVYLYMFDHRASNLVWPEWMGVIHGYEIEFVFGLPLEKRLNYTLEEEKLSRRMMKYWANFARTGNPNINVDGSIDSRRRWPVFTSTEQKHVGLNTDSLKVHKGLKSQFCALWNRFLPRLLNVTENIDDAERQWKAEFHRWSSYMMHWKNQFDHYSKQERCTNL

## O=C(/C=C/C=C/c1ccc(Cl)cc1)c1ccc(O)cc1O [(2E,4E)-5-(4-chlorophenyl)-1-(2,4-dihydroxyphenyl)penta-2,4-dien-1-one]
Human MAO-B
  IC50: 11.3 nM

## COc1ccc(C(=O)/C=C/C=C/c2ccc(Cl)cc2)c(O)c1 [(2E,4E)-5-(4-chlorophenyl)-1-(2-hydroxy-4-methoxyphenyl)penta-2,4-dien-1-one]
Human MAO-B
  IC50: 4.51 nM

## COc1ccc(/C=C/C=C/C(=O)c2ccc(F)cc2)cc1 [MK12, (2E,4E)-1-(4-Fluorophenyl)-5-(4-methoxyphenyl)penta-2,4-dien-1-one]
MAO-B [1]; IC50 (MAO-A)/IC50 (MAO-B)
  SI (MAO-B compared with MAO-A): 1780.5
MAO-B [1]; IC50 MAO-B
  IC50: 3.22 ± 0.04 nM
MAO-B [1]; read-out: residual activity (%) MAO-B
  remaining activity at 1 µM: -2.71%
MAO-B [1]; vs reference irreversible MAO-B inhibitor pargyline
  times higher inhibitory activity than pargyline (MAO-B): 44 times
MAO-B [1]; vs reference reversible MAO-B drug lazabemide
  times more potent than lazabemide (MAO-B): 34 times
MAO-B [2]
  Ki: 3 ± 0.27 nM
MAO-B [2]; Lineweaver–Burk plots
  inhibition type for MAO-B: competitive inhibitors
MAO-B [3]; MK6/MK12 6.0 nM, lazabemide 0.22 μM, pargyline 0.28 μM, after dialysis
  relative MAO-B activity, dialyzed (AD): 74.7%
MAO-B [3]; MK6/MK12 6.0 nM, lazabemide 0.22 μM, pargyline 0.28 μM, preincubation 30 min
  relative MAO-B activity, undialyzed (AU): 33.4%
MAO-B [3]; dialysis
  reversibility of MAO-B inhibition: reversible inhibitors
[4]
  viability at 24 h, 40 μg/mL: > 80%
Vero cells [5]
  toxicity by cellular morphology, phase-contrast microscopy: most toxic of the four tested compounds
Vero cells [6]
  intracellular ROS scavenging: significant scavenging effect of reactive oxygen species; also recorded: significant ROS scavenging effect
BChE
  residual activity (%) BChE: 94.6 ± 1.11%
MAO-A
  IC50: 5700 ± 720 nM
MAO-A; read-out: residual activity (%) MAO-A
  remaining activity at 10 µM: 40.9 ± 1.24%
BACE1
  remaining activity at 10 µM: 81.4 ± 1.03%
AChE
  residual activity (%) AChE: 93.3 ± 0.73%
